Consider 11 compounds from PMC6482412, “Studies on spiro[4.5]decanone prolyl hydroxylase domain inhibitors” (MedChemComm, 2019).

Common to all, as to assay type: biochemical
For experiment [1], the target named is T1, tPHD2 (PHD2 181-426) with HIF-1α NODD (Homo sapiens, UniProt Q9GZT9).
T1 construct: catalytic domain of truncated PHD2 (tPHD2, residues 181–426); His6 (N, cleaved yes); made in house; host or cells: E. coli BL21 DE3
In words: RapidFire-MS PHD2 hydroxylation assay, HIF-1α NODD peptide substrate. As for the experimental part:
(§1) 11–16 were then assayed using mass spectrometry (MS) for inhibition of the catalytic domain of truncated PHD2 (tPHD2, residues 181–426) and (in selected cases) PHD3, employing either human HIF-1α CODD or NODD peptide sequences (Table 1).
(§2) Supplementary Information
(§3) RapidFire-MS PHD2 hydroxylation assays
(§4) Inhibition of PHD2 enzyme activity was assessed by mass spectrometry. The enzyme assay monitors tPHD2181-426 catalysed turnover of a C-terminal oxygenase […]
(§5) C-terminal amide) and appearance of the hydroxylated peptide product
(§6) (hydroxylation of proline 564) with a typical incubation time of 15 minutes.2 Assays were performed in 50 mM Tris.Cl pH 7.8, 50 mM NaCl, titrations of compounds for […]
(§7) ECHO 550 acoustic dispenser (Labcyte) and dry dispensed into 384-well polypropylene assay plates. The final assay concentration of DMSO was kept constant at 0.5% (v/v). tPHD2181-426 was at a concentration of 300 nM in the assay buffer (20 μM ferrous iron sulfate, 200 μM L-ascorbic acid, 10 μM CODD or NODD peptide and 20 μM 2-oxoglutarate) and 25 μl was dispensed across each 384-well assay plate. tPHD2181-426 was allowed to equilibrate with compounds for 15 minutes; the reaction was then initiated by addition of 25 μl of substrate.2 Enzyme reactions were allowed to proceed for 15 minutes and the reaction terminated by addition of 10% (v/v) formic acid (5 μl). Assay plates were then transferred to a RapidFire RF360 sampling robot (Agilent) connected to an Agilent 6530 quadrupole-time-of-flight (Q-TOF) mass spectrometer. Assay samples were aspirated under vacuum and loaded onto a C4 solid phase extraction (SPE) cartridge. After loading, the C4 SPE cartridge was washed with 0.1 % (v/v) formic acid in water to remove non-volatile buffer salts.
(§8) The peptide was then eluted from the SPE with 85% acetonitrile, 15% water containing 0.1% (v/v) formic acid into the mass spectrometer. Peptide charge states were monitored in the positive ion mode. Ion chromatogram data were extracted for […]
(§9) the +2 charge state and peak area data integrated using RapidFire Integrator software (Agilent). The % conversion of the CODD peptide substrate to the +16 hydroxylated peptide was calculated using the equation: […]
(§10) data were determined from non-linear regression plots using GraphPad prism 6.0.
(§11) All data were normalized to a no enzyme control.2

Experiment [2] deals with T2, tPHD2 (PHD2 181-426) with HIF-1α CODD (Homo sapiens, UniProt Q9GZT9).
T2 construct: catalytic domain of truncated PHD2 (tPHD2, residues 181–426); His6 (N, cleaved yes); made in house; host or cells: E. coli BL21 DE3
T2 sequence (Q9GZT9 181-426): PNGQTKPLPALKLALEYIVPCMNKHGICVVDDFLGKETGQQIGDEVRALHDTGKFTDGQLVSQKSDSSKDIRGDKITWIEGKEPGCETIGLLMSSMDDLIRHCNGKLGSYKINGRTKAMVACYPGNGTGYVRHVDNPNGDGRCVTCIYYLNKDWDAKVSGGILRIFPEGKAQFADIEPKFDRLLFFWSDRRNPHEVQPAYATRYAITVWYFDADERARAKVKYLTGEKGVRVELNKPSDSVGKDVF
As to the kind of experiment: RapidFire-MS PHD2 hydroxylation assay, HIF-1α CODD peptide substrate. To be noted: for tPHD2 inhibition (in words): tPHD2, HIF-1α CODD substrate. Here is the method: as §1, §2, §3, §4, §5, §6, §7, §8, §9, §10, §11

Experiment [3] addresses T3, KDM4A (Homo sapiens, UniProt O75164).
T3 sequence (O75164 1-1064): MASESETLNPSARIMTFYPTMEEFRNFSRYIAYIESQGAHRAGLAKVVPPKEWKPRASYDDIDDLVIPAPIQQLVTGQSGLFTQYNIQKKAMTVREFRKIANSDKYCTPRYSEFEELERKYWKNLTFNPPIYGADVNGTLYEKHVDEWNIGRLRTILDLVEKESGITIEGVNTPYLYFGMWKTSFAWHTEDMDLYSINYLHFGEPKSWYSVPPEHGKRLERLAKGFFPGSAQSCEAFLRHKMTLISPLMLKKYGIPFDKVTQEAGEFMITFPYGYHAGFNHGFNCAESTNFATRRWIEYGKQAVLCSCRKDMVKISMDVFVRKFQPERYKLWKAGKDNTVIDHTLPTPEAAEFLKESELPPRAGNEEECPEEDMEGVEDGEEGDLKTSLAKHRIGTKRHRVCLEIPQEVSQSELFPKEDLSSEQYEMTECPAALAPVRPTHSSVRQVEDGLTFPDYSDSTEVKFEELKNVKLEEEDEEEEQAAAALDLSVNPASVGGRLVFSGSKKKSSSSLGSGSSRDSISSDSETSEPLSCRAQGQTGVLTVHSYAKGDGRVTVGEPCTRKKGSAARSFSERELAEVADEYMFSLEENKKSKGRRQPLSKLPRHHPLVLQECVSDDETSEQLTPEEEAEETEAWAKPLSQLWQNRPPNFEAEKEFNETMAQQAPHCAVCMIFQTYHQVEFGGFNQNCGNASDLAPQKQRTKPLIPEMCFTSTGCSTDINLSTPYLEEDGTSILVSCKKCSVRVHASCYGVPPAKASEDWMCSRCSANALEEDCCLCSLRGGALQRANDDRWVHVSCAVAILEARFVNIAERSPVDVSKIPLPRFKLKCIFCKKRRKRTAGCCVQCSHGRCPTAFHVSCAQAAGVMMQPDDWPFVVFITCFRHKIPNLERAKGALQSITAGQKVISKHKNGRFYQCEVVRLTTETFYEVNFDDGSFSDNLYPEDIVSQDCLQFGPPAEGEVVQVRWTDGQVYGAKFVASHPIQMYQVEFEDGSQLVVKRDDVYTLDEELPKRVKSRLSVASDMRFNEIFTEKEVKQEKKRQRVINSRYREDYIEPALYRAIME
As to the kind of experiment: KDM4A selectivity assay with H3(1-15) K9Me3, RapidFire-MS. As to conditions: isolated KDM4A, Table S2.
Text: (§12) We carried out initial studies on the selectivity of the spiro[4.5]decanone series.
as §2
(§13) Table S2: Studies on the selectivity of spiro[4.5]decanone containing inhibitors.
(§14) Compounds were screened against FIH with the HIF-1α CAD peptide D788 - L822 and
(§15) KDM4A with H3(1 - 15) K9Me3. Both assays employed the RapidFire-MS sampling
(§16) machine. See Experimental Methods for details. 2 […]

The target in experiment [4] is PHD3 (Homo sapiens, UniProt Q9H6Z9). In words: PHD3 catalysed HIF-1α CODD hydroxylation, RapidFire mass spectrometry. Here is the method:
as §1, §12

Experiment [5] has as its target factor inhibiting HIF (FIH) (Homo sapiens, UniProt Q9NWT6). In words: FIH selectivity assay with HIF-1α CAD peptide D788-L822, RapidFire-MS. As to conditions: isolated FIH, Table S2.
Text: as §12, §2, §13, §14, §15, §16

The mark [6] stands for this setting: tPHD2 181-426, HIF-1α NODD peptide, RapidFire MS, standard error of the mean (n = 3), read-out: PHD2 with HIF1-α NODD IC50.
Setting [7] is: tPHD2 181-426, HIF-1α CODD peptide, RapidFire MS, standard error of the mean (n = 3), read-out: PHD2 with HIF1-α CODD IC50.

Read-outs that look alike come from different tables or passages of the source.

T1 sequence (Q9GZT9 181-426): as the sequence (Q9GZT9 181-426) above
Sequence of PHD3 (Q9H6Z9 whole entry): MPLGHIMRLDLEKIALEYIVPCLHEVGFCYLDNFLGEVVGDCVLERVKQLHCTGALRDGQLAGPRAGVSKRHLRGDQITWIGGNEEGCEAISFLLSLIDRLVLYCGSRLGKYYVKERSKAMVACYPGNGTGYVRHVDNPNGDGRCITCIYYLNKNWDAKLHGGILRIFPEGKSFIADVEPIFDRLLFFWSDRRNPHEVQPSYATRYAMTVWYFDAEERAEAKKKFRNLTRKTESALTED
Sequence of factor inhibiting HIF (FIH) (Q9NWT6 whole entry): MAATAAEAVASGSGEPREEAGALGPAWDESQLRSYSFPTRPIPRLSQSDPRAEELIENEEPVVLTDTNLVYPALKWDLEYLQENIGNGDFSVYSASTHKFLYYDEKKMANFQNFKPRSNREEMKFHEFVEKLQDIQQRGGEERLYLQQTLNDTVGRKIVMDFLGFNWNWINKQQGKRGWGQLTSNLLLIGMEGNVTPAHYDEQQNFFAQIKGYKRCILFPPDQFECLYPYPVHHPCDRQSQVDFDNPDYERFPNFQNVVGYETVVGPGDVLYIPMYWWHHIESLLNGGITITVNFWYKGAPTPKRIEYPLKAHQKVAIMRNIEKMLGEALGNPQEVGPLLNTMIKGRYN

Usually IC50 stands for the concentration at which inhibition is half-maximal. With `O=C1N(c2ccc(-c3ccccc3)cc2)C(=O)C2(CCNCC2)N1c1ncccn1` [Compound 10], the IC50 in experiment [1] (setting [6]) and in experiment [2] (setting [7]) was above 25000 nM in each case.
For the compound `Cc1cccnc1CN1CCC2(CC1)C(=O)N(c1ccc(-c3ccccc3)cc1)C(=O)N2c1ncccn1` [Compound 11], in experiment [3], the “KDM4A inhibition (in words)” value is recorded as “weak”.
For `O=C1N(c2ccc(-c3ccccc3)cc2)C(=O)C2(CCN(Cc3cccs3)CC2)N1c1ncccn1` [Compound 12], the 50% inhibitory concentration (IC50) in experiment [1] (setting [6]) and in experiment [2] (setting [7]) was above 25000 nM throughout. Also, in experiment [2], the “tPHD2 inhibition (in words)” value is “inactive”.
With `O=C1N(c2ccc(-c3ccccc3)cc2)C(=O)C2(CCN(Cc3ccccc3O)CC2)N1c1ncccn1` [Compound 13], the IC50 in experiment [1] was above 25000 nM. In experiment [2], the IC50 is above 25000 nM and the “tPHD2 inhibition (in words)” value was “inactive”.
Consider `Cn1ccnc1CN1CCC2(CC1)C(=O)N(c1ccc(-c3ccccc3)cc1)C(=O)N2c1ncccn1` [Compound 14], for which, in experiment [1], inhibition was half-maximal at 49 ± 5 nM (IC50). For the same compound, in experiment [2], the IC50 is 143 ± 97 nM and the “tPHD2 inhibition (in words)” value is on record as “maintained potent inhibition”. For the same compound, in experiment [3], the “KDM4A inhibition (in words)” value was “weak”.
As for `O=C1N(c2ccc(-c3ccccc3)cc2)C(=O)C2(CCN(Cc3ncc[nH]3)CC2)N1c1ncccn1` [Compound 15], the IC50 in experiment [1] (setting [6]) was 70 ± 21 nM; in experiment [2] (setting [7]), 215 ± 19 nM. The “tPHD2 inhibition (in words)” value in experiment [2] is “maintained potent inhibition”.
Consider `COc1cccc(CN2CCC3(CC2)C(=O)N(c2ccc(-c4ccccc4)cc2)C(=O)N3c2ncccn2)n1` [Compound 16], for which the IC50 in experiment [1] (setting [6]) is 905 ± 417 nM; in experiment [2] (setting [7]) it was 1210 ± 226 nM.
As to `Cc1cccnc1CN1CCC2(CC1)NC(=O)N(c1ccc(-c3ccccc3)cc1)C2=O` [Compound 23], the IC50 in experiment [4] worked out at 1050 ± 40 nM.
For the compound `Cn1ccnc1CN1CCC2(CC1)NC(=O)N(c1ccc(-c3ccccc3)cc1)C2=O` [Compound 24], the IC50 worked out at 63 ± 16 nM in experiment [1] (setting [6]), 151 ± 35 nM in experiment [2] (setting [7]) and 219 ± 25 nM in experiment [4].
Take `COc1ccnc(N2C(=O)N(c3ccc(-c4ccccc4)cc3)C(=O)C23CCN(Cc2ncccc2C)CC3)n1` [Compound 26]: the “FIH inhibition (in words)” value in experiment [5] was “weak”. Also, the results for the IC50 in experiment [1] (setting [6]) and in experiment [2] (setting [7]) were 55 ± 15 nM and 289 ± 11 nM, respectively.
On to `Cc1cccnc1CN1CCC2(CC1)C(=O)N(c1ccc(-c3ccccc3)cc1)C(=O)N2c1cc(C(=O)O)ccn1` [Compound 27], for which the IC50 in experiment [1] (setting [6]) stood at 94 ± 32 nM; in experiment [2] (setting [7]), 380 ± 64 nM.
